What all share (format): in vivo
The test system of assay [1] is Reserpine-treated rats. Kind of assay: Reserpine-treated rat: locomotor activity, CB1 antagonist po combined with strong dose of C1-APB (SKF 82958). Conditions: locomotion recorded 1 hour. The protocol:
(§1) The synergistic effect of the combination of one or more products which activate dopaminergic neurotransmission in the brain and of one or more CB1 antagonists in the treatment of Parkinson's disease was determined in a model of akinesia induced by reserpine in the rat according to the following protocol:
(§2) Male Sprague-Dawley rats were treated with reserpine administered subcutaneously at a dose of 3 mg/kg (1 ml/kg) in order to induce akinesia in the animal. 18 hours after this treatment, the locomotor activity of these animals was measured and recorded using an automatic system (Videotrack, France). The locomotion, expressed in centimeters, is estimated by a mean overall distance covered during this period (n=11-38 rats per group). The statistical analysis is carried out by variance analysis and a post-hoc comparison (if appropriate) using a Mann-Whitney or Dunnett test. A significant effect is recorded for p<0.05.
(§3) The studies by the oral route are carried out in a hydrophobic formulation solvent Labrafil/Labrasol (40/60%, w/w). These products are administered (in a volume of 1 ml/kg) one hour before the dopaminergic agonist. The recording of the locomotor activity begins 5 min after the intraperitoneal injection of the dopaminergic agonist and lasts 1 hour. The D1 dopaminergic agonist is 0.3 mg/kg C1-APB. The D2 dopaminergic agonist is 0.1 mg/kg quinpirole.
(§4) The results for the po administration of the CB1 antagonist at three different doses (1, 3 and 10 mg/kg/po) (Table 2) are expressed as percentage of increase with respect to the activity of quinpirole and a percentage of decrease with respect to the activity of a strong dose of C1-APB (SKF 82958).

Assay [2] has as its system Reserpine-treated rats. As to the kind of experiment: Reserpine-treated rat, dyskinesia model: locomotor activity, CB1 antagonist ip combined with strong dose of levodopa. Conditions: CB1 antagonist 1 mg/kg i.p.; levodopa 120 mg/kg + benserazide 50 mg/kg i.p.; locomotion recorded 2.5 hours. The method, then: as §1, §2
(§5) The results for the ip administration of the CB1 antagonist (Table 1) are expressed as percentage of increase with respect to the activity of quinpirole and as percentage of decrease with respect to the activity of a very strong dose of levodopa.
The combination of the CB1 receptor antagonist and of a strong dose of levodopa (dyskinesia model) is produced in the following way: […]

Assay [3] has as its system Reserpine-treated rats. Kind of assay: Reserpine-induced akinesia in the rat: locomotor activity, CB1 antagonist ip combined with quinpirole. Particulars: CB1 antagonist 1 mg/kg i.p., locomotion recorded 1 hour. The method, then:
as §1, §2, §5
The combination of a CB1 receptor antagonist and of a D2 dopaminergic agonist (quinpirole) is produced in the following way: […]

The subject of assay [4] is Reserpine-treated rats. Kind of assay: Reserpine-induced akinesia in the rat: locomotor activity, CB1 antagonist po combined with quinpirole. Conditions: locomotion recorded 1 hour. The protocol: as §1, §2, §3, §4

Marks after values point to notes of the source that are not given here.

With `Cc1c(C(=O)NN2CCCCC2)nn(-c2ccc(Cl)cc2Cl)c1-c1ccc(Cl)cc1.Cl` [SR141716A, N-(piperidin-1-yl)-5-(4-chlorophenyl)-1-(2,4-dichlorophenyl)-4-methyl-1H-pyrazole-3-carboxamide hydrochloride], the entries for the “Combination with C1-APB (0.3 mg/kg ip): percentage of decrease with respect to the activity of a strong dose of C1-APB” value with Reserpine-treated rats [1] (CB1 antagonist 1 mg/kg po one hour before C1-APB), with Reserpine-treated rats [1] (CB1 antagonist 3 mg/kg po one hour before C1-APB) and with Reserpine-treated rats [1] (CB1 antagonist 10 mg/kg po one hour before C1-APB) were −32% NS, −58%* and −82%**, respectively. Moreover, the “Combination with levodopa (120 mg/kg ip): percentage of decrease with respect to the activity of a very strong dose of levodopa” value with Reserpine-treated rats [2] is on record as −61%*. For the same molecule, the “Combination with quinpirole (62.5 μg/kg ip): percentage of increase with respect to the activity of quinpirole” value with Reserpine-treated rats [3] was “+116%***”. For the same molecule, the “Combination with quinpirole (0.1 mg/kg ip): percentage of increase with respect to the activity of quinpirole” value in the assay with Reserpine-treated rats [4] (CB1 antagonist 1 mg/kg po one hour before quinpirole) is given as “+57%* NS”; in the assay with Reserpine-treated rats [4] (CB1 antagonist 3 mg/kg po one hour before quinpirole) it was “+121%**”; in the assay on Reserpine-treated rats [4] (CB1 antagonist 10 mg/kg po one hour before quinpirole), “+87%**”.

These data come from US20070197654A1, “COMBINATION OF A CB1 RECEPTOR ANTAGONIST AND OF A PRODUCT WHICH ACTIVATES DOPAMINERGIC NEUROTRANSMISSION IN THE BRAIN, THE PHARMACEUTICAL COMPOSITIONS COMPRISING THEM AND THEIR USE IN THE TREATMENT OF PARKINSON'S DISEASE” (AVENTIS PHARMA S.A., priority 2001, published 2007).
